Key:
[1] = target: T1, CDK4 (Homo sapiens, UniProt P11802); test: Western blot degradation of CDK4 (MDA-MB-231 Cell); assay type: cell-based; conditions: Table D3
T1 construct: evaluate the effects of the compounds of the present disclosure on the expression of target proteins in cells; endogenous in cells; host or cells: MDA-MB-231
Method: (§1) Conventional Western blot assay was performed to evaluate the effects of the compounds of the present disclosure on the expression of target proteins in cells.
(§2) (1) Cell Seeding and Protein Harvesting: The selected cells were processed according to the cell seeding procedure and protein harvesting procedure in Table III-2. Table III-2 Cell Seeding and Protein Harvesting Procedures
(§3) (2) To the collected supernatant, 5X SDS sample loading buffer was added, followed by denaturation at 95°C for 5 minutes. The denatured samples were then separated by SDS-PAGE electrophoresis on a polyacrylamide gel. Proteins were transferred to a nitrocellulose membrane (0.45 µm NC membrane), blocked with blocking buffer at room temperature for 1 hour, and subjected to antibody incubation and development procedures according to the antibody manufacturer's instructions (Cell Signaling Technology).
(§4) Half-Maximal Degradation Concentration value (the drug concentration required for degrading proteins by 50%, abbreviated as DC50) reads method: comparing the grayscale values of Western blot bands from drug-treated samples with those from blank DMSO-treated controls, and identifying the drug concentration range at which the grayscale value is half that of the DMSO-treated control bands.
(§5) DC50 values can be calculated using ImageJ software to measure grayscale values of Western blot bands from drug-treated samples. The concentration-response curve is fitted to estimate the drug concentration corresponding to half the grayscale value.
(§6) Target protein remaining (%) refers to the percentage of target protein remaining in hPBMC cells after treatment with protein degrader compounds.
(§7) Calculation method for target protein remaining (%): Use ImageJ software to measure grayscale values of Western blot bands from drug (protein degrader)-treated samples. The grayscale value of drug-treated bands is divided by that of internal control protein bands, and the resulting quotient is normalized to obtain the relative percentage of remaining target protein after protein degrader treatment.
(§8) Target protein degradation rate (%) = 100% - target protein remaining (%).

[2] = target: T2, CDK6 (Homo sapiens, UniProt Q00534); test: Western blot degradation of CDK6 (MDA-MB-231 Cell); assay type: cell-based; conditions: Table D3
T2 construct: evaluate the effects of the compounds of the present disclosure on the expression of target proteins in cells; endogenous in cells; host or cells: MDA-MB-231
T2 sequence (Q00534 whole entry): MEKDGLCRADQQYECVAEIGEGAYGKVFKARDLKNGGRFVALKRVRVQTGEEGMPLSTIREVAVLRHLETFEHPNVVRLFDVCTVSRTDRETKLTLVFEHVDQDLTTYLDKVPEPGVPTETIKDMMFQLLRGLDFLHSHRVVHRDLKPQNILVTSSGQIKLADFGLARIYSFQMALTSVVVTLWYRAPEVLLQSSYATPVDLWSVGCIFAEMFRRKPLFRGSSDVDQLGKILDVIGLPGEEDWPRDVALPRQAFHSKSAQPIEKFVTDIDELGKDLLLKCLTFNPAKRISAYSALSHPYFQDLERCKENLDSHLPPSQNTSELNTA
Method: as §1, §2, §3, §4, §5, §6, §7, §8

T1 sequence (P11802 whole entry): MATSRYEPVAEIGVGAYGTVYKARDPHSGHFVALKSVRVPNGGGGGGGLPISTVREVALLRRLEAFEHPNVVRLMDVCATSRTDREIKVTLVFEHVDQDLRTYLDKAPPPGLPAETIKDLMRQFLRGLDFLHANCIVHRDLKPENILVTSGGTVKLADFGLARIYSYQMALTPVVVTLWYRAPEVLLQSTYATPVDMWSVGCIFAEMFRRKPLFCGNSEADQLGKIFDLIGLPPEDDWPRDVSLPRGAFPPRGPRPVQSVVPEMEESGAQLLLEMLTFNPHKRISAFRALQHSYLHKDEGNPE

`CN(C)C(=O)c1cc2cnc(Nc3ccc(N4CCC(N(C)Cc5cccc(NC6CCC(=O)NC6=O)c5)CC4)cn3)nc2n1C1CCCC1` (stereo not shown) [GT-06495, 7-cyclopentyl-2-((5-(4-((3-((2,6-dioxopiperidin-3-yl)amino)benzyl)(methyl)amino)piperidin-1-yl)pyridin-2-yl)amino)-N,N-dimethyl-7H-pyrrolo[2,3-d]pyrimidine-6-carboxamide] was tested, and the “Degradation of substrate protein CDK4 (substrate protein remaining %)” value [1] was “A (A is defined as 0% ≤ substrate protein remaining % ≤ 80%)” and the “Degradation of substrate protein CDK6 (substrate protein remaining %)” value [2] was “A (A is defined as 0% ≤ substrate protein remaining % ≤ 80%)”.
With `CN(C)C(=O)c1cc2cnc(Nc3ccc(N4CCN(Cc5cccc(N6CCC(=O)NC6=O)c5)CC4)cn3)nc2n1C1CCCC1` [GT-06341, 7-cyclopentyl-2-((5-(4-(3-(2,4-dioxotetrahydropyrimidin-1(2H)-yl)benzyl)piperazin-1-yl)pyridin-2-yl)amino)-N,N-dimethyl-7H-pyrrolo[2,3-d]pyrimidine-6-carboxamide] the “Degradation of substrate protein CDK4 (substrate protein remaining %)” value [1] was “A (A is defined as 0% ≤ substrate protein remaining % ≤ 80%)” and the “Degradation of substrate protein CDK6 (substrate protein remaining %)” value [2] was “A (A is defined as 0% ≤ substrate protein remaining % ≤ 80%)”.
In the case of `CC(=O)c1c(C)c2cnc(Nc3ccc(N4CCN(Cc5cnc(N6CCC(=O)NC6=O)cn5)CC4)cn3)nc2n(C2CCCC2)c1=O` [GT-07827, 1-(5-((4-(6-((6-acetyl-8-cyclopentyl-5-methyl-7-oxo-7,8-dihydropyrido[2,3-d]pyrimidin-2-yl)amino)pyridin-3-yl)piperazin-1-yl)methyl)pyrazin-2-yl)dihydropyrimidine-2,4(1H,3H)-dione], the “Degradation of substrate protein CDK4 (substrate protein remaining %)” value [1] is reported as “A (A is defined as 0% ≤ substrate protein remaining % ≤ 80%)” and the “Degradation of substrate protein CDK6 (substrate protein remaining %)” value [2] is reported as “A (A is defined as 0% ≤ substrate protein remaining % ≤ 80%)”.
For `CN(C)C(=O)c1cc2cnc(Nc3ccc(N4CCN(Cc5cnc(N6CCC(=O)NC6=O)cn5)CC4)cn3)nc2n1C1CCCC1` [GT-07831, 7-cyclopentyl-2-((5-(4-((5-(2,4-dioxotetrahydropyrimidin-1(2H)-yl)pyrazin-2-yl)methyl)piperazin-1-yl)pyridin-2-yl)amino)-N,N-dimethyl-7H-pyrrolo[2,3-d]pyrimidine-6-carboxamide], the “Degradation of substrate protein CDK4 (substrate protein remaining %)” value [1] was “A (A is defined as 0% ≤ substrate protein remaining % ≤ 80%)” and the “Degradation of substrate protein CDK6 (substrate protein remaining %)” value [2] was “A (A is defined as 0% ≤ substrate protein remaining % ≤ 80%)”.
With `CN(C)C(=O)c1cc2cnc(Nc3ccc(N4CCC(N(C)Cc5ccc(N6CCC(=O)NC6=O)cc5)CC4)cn3)nc2n1C1CCCC1` [GT-06491, 7-cyclopentyl-2-((5-(4-((4-(2,4-dioxotetrahydropyrimidin-1(2H)-yl)benzyl)(methyl)amino)piperidin-1-yl)pyridin-2-yl)amino)-N,N-dimethyl-7H-pyrrolo[2,3-d]pyrimidine-6-carboxamide] the “Degradation of substrate protein CDK4 (substrate protein remaining %)” value [1] was “B (B is defined as substrate protein remaining % > 80%)” and the “Degradation of substrate protein CDK6 (substrate protein remaining %)” value [2] was “A (A is defined as 0% ≤ substrate protein remaining % ≤ 80%)”.
`CC(=O)c1c(C)c2cnc(Nc3ccc(N4CCN(Cc5ccc(N6CCC(=O)NC6=O)cc5)CC4)cn3)nc2n(C2CCCC2)c1=O` [GT-06576, 1-(4-((4-(6-((6-acetyl-8-cyclopentyl-5-methyl-7-oxo-7,8-dihydropyrido[2,3-d]pyrimidin-2-yl)amino)pyridin-3-yl)piperazin-1-yl)methyl)phenyl)dihydropyr imidine-2,4(1H,3H)-dione] was tested, and the “Degradation of substrate protein CDK4 (substrate protein remaining %)” value [1] was “A (A is defined as 0% ≤ substrate protein remaining % ≤ 80%)” and the “Degradation of substrate protein CDK6 (substrate protein remaining %)” value [2] was “A (A is defined as 0% ≤ substrate protein remaining % ≤ 80%)”.
`CC(=O)c1c(C)c2cnc(Nc3ccc(N4CCN(Cc5ccc(N6CCC(=O)NC6=O)nc5)CC4)cn3)nc2n(C2CCCC2)c1=O` [GT-06579, 1-(5-((4-(6-((6-acetyl-8-cyclopentyl-5-methyl-7-oxo-7,8-dihydropyrido[2,3-d]pyrimidin-2-yl)amino)pyridin-3-yl)piperazin-1-yl)methyl)pyridin-2-yl)dihydropyrimidine-2,4(1H,3H)-dione] was tested, and the “Degradation of substrate protein CDK4 (substrate protein remaining %)” value [1] was “B (B is defined as substrate protein remaining % > 80%)” and the “Degradation of substrate protein CDK6 (substrate protein remaining %)” value [2] was “A (A is defined as 0% ≤ substrate protein remaining % ≤ 80%)”.
`CN(C)C(=O)c1cc2cnc(Nc3ccc(N4CCN(Cc5ccc(N6CCC(=O)NC6=O)cc5)CC4)cn3)nc2n1C1CCCC1` [GT-06340, 7-cyclopentyl-2-((5-(4-(4-(2,4-dioxotetrahydropyrimidin-1(2H)-yl)benzyl)piperazin-1-yl)pyridin-2-yl)amino)-N,N-dimethyl-7H-pyrrolo[2,3-d]pyrimidine-6-carboxamide] was tested, and the “Degradation of substrate protein CDK4 (substrate protein remaining %)” value [1] was “A (A is defined as 0% ≤ substrate protein remaining % ≤ 80%)” and the “Degradation of substrate protein CDK6 (substrate protein remaining %)” value [2] was “A (A is defined as 0% ≤ substrate protein remaining % ≤ 80%)”.
`CN(C)C(=O)c1cc2cnc(Nc3ccc(N4CCN(Cc5ccnc(C6CCC(=O)NC6=O)c5)CC4)cn3)nc2n1C1CCCC1` (stereo not shown) [GT-07478, 7-cyclopentyl-2-((5-(4-((2-(2,6-dioxopiperidin-3-yl)pyridin-4-yl)methyl)piperazin-1-yl)pyridin-2-yl)amino)-N,N-dimethyl-7H-pyrrolo[2,3-d]pyrimidine-6-carboxamide] was tested, and the “Degradation of substrate protein CDK4 (substrate protein remaining %)” value [1] was “A (A is defined as 0% ≤ substrate protein remaining % ≤ 80%)” and the “Degradation of substrate protein CDK6 (substrate protein remaining %)” value [2] was “A (A is defined as 0% ≤ substrate protein remaining % ≤ 80%)”.
With `CN(C)C(=O)c1cc2cnc(Nc3ccc(N4CCC(N(C)Cc5ccc(N6CCC(=O)NC6=O)cn5)CC4)cn3)nc2n1C1CCCC1` [GT-06493, 7-cyclopentyl-2-((5-(4-(((5-(2,4-dioxotetrahydropyrimidin-1(2H)-yl)pyridin-2-yl)methyl)(methyl)amino)piperidin-1-yl)pyridin-2-yl)amino)-N,N-dimethyl-7H-pyrrolo[2,3-d]pyrimidine-6-carboxamide] the “Degradation of substrate protein CDK4 (substrate protein remaining %)” value [1] was “A (A is defined as 0% ≤ substrate protein remaining % ≤ 80%)” and the “Degradation of substrate protein CDK6 (substrate protein remaining %)” value [2] was “B (B is defined as substrate protein remaining % > 80%)”.
`CN(C)C(=O)c1cc2cnc(Nc3ccc(N4CCN(Cc5cccc(NC6CCC(=O)NC6=O)c5)CC4)cn3)nc2n1C1CCCC1` (stereo not shown) [GT-06344, 7-cyclopentyl-2-((5-(4-(3-((2,6-dioxopiperidin-3-yl)amino)benzyl)piperazin-1-yl)pyridin-2-yl)amino)-N,N-dimethyl-7H-pyrrolo[2,3-d]pyrimidine-6-carboxamide] was tested, and the “Degradation of substrate protein CDK4 (substrate protein remaining %)” value [1] was “B (B is defined as substrate protein remaining % > 80%)” and the “Degradation of substrate protein CDK6 (substrate protein remaining %)” value [2] was “A (A is defined as 0% ≤ substrate protein remaining % ≤ 80%)”.
For `CN(C)C(=O)c1cc2cnc(Nc3ccc(N4CCC(N(C)Cc5ccc(C6CCC(=O)NC6=O)cc5)CC4)cn3)nc2n1C1CCCC1` (stereo not shown) [GT-06490, 7-cyclopentyl-2-((5-(4-((4-(2,6-dioxopiperidin-3-yl)benzyl)(methyl)amino)piperidin-1-yl)pyridin-2-yl)amino)-N,N-dimethyl-7H-pyrrolo[2,3-d]pyrimidine-6-carboxamide], the “Degradation of substrate protein CDK4 (substrate protein remaining %)” value [1] was “A (A is defined as 0% ≤ substrate protein remaining % ≤ 80%)” and the “Degradation of substrate protein CDK6 (substrate protein remaining %)” value [2] was “B (B is defined as substrate protein remaining % > 80%)”.
For `CN(C)C(=O)c1cc2cnc(Nc3ccc(N4CCN(Cc5cc(N6CCC(=O)NC6=O)ncc5F)CC4)cn3)nc2n1C1CCCC1` [GT-07474, 7-cyclopentyl-2-((5-(4-((2-(2,4-dioxotetrahydropyrimidin-1(2H)-yl)-5-fluoropyridin-4-yl)methyl)piperazin-1-yl)pyridin-2-yl)amino)-N,N-dimethyl-7H-pyrrolo[2,3-d]pyrimidine-6-carboxamide], the “Degradation of substrate protein CDK4 (substrate protein remaining %)” value [1] was “A (A is defined as 0% ≤ substrate protein remaining % ≤ 80%)” and the “Degradation of substrate protein CDK6 (substrate protein remaining %)” value [2] was “A (A is defined as 0% ≤ substrate protein remaining % ≤ 80%)”.
In the case of `CC(=O)c1c(C)c2cnc(Nc3ccc(N4CCN(Cc5cc(N6CCC(=O)NC6=O)ncc5F)CC4)cn3)nc2n(C2CCCC2)c1=O` [GT-07480, 1-(4-((4-(6-((6-acetyl-8-cyclopentyl-5-methyl-7-oxo-7,8-dihydropyrido[2,3-d]pyrimidin-2-yl)amino)pyridin-3-yl)piperazin-1-yl)methyl)-5-fluoropyridin-2-yl)dihydropyrimidine-2,4(1H,3H)-dione], the “Degradation of substrate protein CDK4 (substrate protein remaining %)” value [1] is reported as “A (A is defined as 0% ≤ substrate protein remaining % ≤ 80%)” and the “Degradation of substrate protein CDK6 (substrate protein remaining %)” value [2] is reported as “A (A is defined as 0% ≤ substrate protein remaining % ≤ 80%)”.

Source: patent EP4678638A1, “NEW E3 UBIQUITIN LIGASE LIGAND, PROTEIN DEGRADATION AGENT AND USE THEREOF” (priority 2023, dated 2024)
